From ChEMBL document CHEMBL4842342, “Amidoxime prodrugs convert to potent cell-active multimodal inhibitors of the dengue virus protease” (Eur J Med Chem, 2021)
Active and inactive are the calls of the source. The calls are words filed in the database; no cut-off is given here.

What was measured:
Genome polyprotein [1] = biological target: T1, Genome polyprotein (dengue virus type 2, UniProt P29990); test: Inhibition of DENV2 NS2B-NS3 protease
dengue virus type 2 [2] = test: Antiviral activity against Dengue virus 2 measured at 48 hrs post-infection; format: functional, organism-based; details: Dengue virus, 48 h; read-out: EC50
dengue virus type 2 [3] = test: Antiviral activity against DENV2 infected in human Huh-7 cells assessed as log reduction in intracellular viral RNA synthesis at 10 uM treated at 6 hrs post-viral infection and measured after 12 hrs by real time RT-PCR method; format: functional
dengue virus type 2 [4] = test: Antiviral activity against DENV2 infected in human Huh-7 cells assessed as log reduction in extracellular viral RNA synthesis at 10 uM treated at 6 hrs post-viral infection and measured after 48 hrs by real time RT-PCR method; format: functional
dengue virus type 2 [5] = test: Antiviral activity against DENV2 infected in human Huh-7 cells assessed as viral infection rate at 10 uM treated at 6 hrs post-viral infection and measured at 30 hrs post-infection by confocal microscopy (reference value: 50 to 60%); format: functional; details: time 24 hrs
dengue virus type 2 [6] = test: Antiviral activity against DENV2 infected in human Huh-7 cells assessed as log reduction in intracellular viral RNA synthesis at 10 uM treated at 6 hrs post-viral infection and measured after 38 hrs by real time RT-PCR method; format: functional
dengue virus type 2 [7] = test: Antiviral activity against DENV2 infected in human Huh-7 cells assessed as reduction in intracellular viral RNA synthesis at 10 uM treated at 6 hrs post-viral infection and measured after 48 hrs by real time RT-PCR method; format: functional, organism-based
[8] = biological target: Genome polyprotein (dengue virus type 2) (UniProt P29990); test: Inhibition of NS2B-NS3 protease in DENV2 infected in human Huh-7 cells assessed as inhibition of NS3 internal cleavage site at 10 uM treated 6 hrs […] viral infection and measured at 30 hrs post-infection by western blot analysis; format: cell-based; details: time 24.0 hrs
Zika virus = test: Antiviral activity against Zika virus; format: functional, organism-based
[9] = biological target: Genome polyprotein (dengue virus type 2) (UniProt P29990); test: Inhibition of DENV2 NS2B-NS3 protease up to 200 uM; details: dose microM <=200
Genome polyprotein [10] = biological target: T1, Genome polyprotein; test: Inhibition of NS2B-NS3 protease in DENV2 EDEN2 infected in human Huh-7 cells; format: cell-based
dengue virus type 2 [11] = test: Antiviral activity against Dengue virus 2 EDEN2 infected in human Huh-7 cells; format: functional, organism-based; details: EDEN2, Huh-7
[12] = Cytotoxicity against human Huh-7 cells assessed as reduction in cell viability; format: cell-based
dengue virus type 2 [13] = test: Antiviral activity against DENV2 D2Y10 virus infected in human PBMC cells in presence of 4G2 antibody; format: functional, organism-based
[14] = Cytotoxicity against human PBMC assessed as reduction in cell viability
dengue virus type 1 = test: Antiviral activity against DENV1; format: functional, organism-based
dengue virus type 2 [15] = test: Antiviral activity against DENV2; format: functional, organism-based
dengue virus type 3 = test: Antiviral activity against DENV3; format: functional, organism-based
dengue virus type 4 = test: Antiviral activity against DENV4; format: functional, organism-based

N/C(=N\O)c1cccc(-c2ccc3c(c2)c2cc(-c4cccc(/C(N)=N/O)c4)ccc2n3S(=O)(=O)c2ccccc2Br)c1
IC50 (Genome polyprotein [1]): Not Active | EC50 (dengue virus type 2 [2]): 7.6 µM

N/C(=N\O)c1cccc(-c2ccc3c(c2)c2cc(-c4cccc(/C(N)=N/O)c4)ccc2n3CC(O)COc2ccccn2)c1 (centres undefined)
EC50 (dengue virus type 2 [2]): 33.9 µM

COc1ccc(S(=O)(=O)n2c3ccc(-c4cccc(/C(N)=N/O)c4)cc3c3cc(-c4cccc(/C(N)=N/O)c4)ccc32)cc1C
EC50 (dengue virus type 2 [2]): 3.1 µM

COc1ccc(S(=O)(=O)n2c3ccc(-c4cccc(/C(N)=N/O)c4)cc3c3cc(-c4cccc(/C(N)=N/O)c4)ccc32)c(OC)c1
EC50 (dengue virus type 2 [2]): 1.8 µM

COc1ccc(S(=O)(=O)n2c3ccc(-c4cccc(/C(N)=N/O)c4)cc3c3cc(-c4cccc(/C(N)=N/O)c4)ccc32)cc1Br
EC50 (dengue virus type 2 [2]): 2.4 µM

COc1cccc(S(=O)(=O)n2c3ccc(-c4cccc(/C(N)=N/O)c4)cc3c3cc(-c4cccc(/C(N)=N/O)c4)ccc32)c1
IC50 (Genome polyprotein [1]): Not Active | EC50 (dengue virus type 2 [2]): 8.7 µM | log(activity) (dengue virus type 2 [3]): 1 | log(activity) (dengue virus type 2 [4]): 2 | Activity (dengue virus type 2 [5]): 30% | Activity (dengue virus type 2 [6]): inactive | Activity (dengue virus type 2 [7]): inactive | inhibition [8]: Active

N/C(=N\O)c1cccc(-c2ccc3c(c2)c2cc(-c4cccc(/C(N)=N/O)c4)ccc2n3S(=O)(=O)c2ccccc2OC(F)(F)F)c1
IC50 (Genome polyprotein [1]): Not Active | EC50 (dengue virus type 2 [2]): 1.9 µM

N/C(=N\O)c1cccc(-c2ccc3c(c2)c2cc(-c4cccc(/C(N)=N/O)c4)ccc2n3S(=O)(=O)c2cccc(OC(F)(F)F)c2)c1
IC50 (Genome polyprotein [1]): Not Active | EC50 (dengue virus type 2 [2]): 7.7 µM

N/C(=N\O)c1cccc(-c2ccc3c(c2)c2cc(-c4cccc(/C(N)=N/O)c4)ccc2n3Cc2ccc(Br)c(F)c2)c1
EC50 (dengue virus type 2 [2]): 1.4 µM

N/C(=N\O)c1cccc(-c2ccc3c(c2)c2cc(-c4cccc(/C(N)=N/O)c4)ccc2n3S(=O)(=O)c2ccc(Br)c(F)c2)c1
EC50 (dengue virus type 2 [2]): 7.8 µM

N/C(=N\O)c1cccc(-c2ccc3c(c2)c2cc(-c4cccc(/C(N)=N/O)c4)ccc2n3S(=O)(=O)c2ccccc2Cl)c1
EC50 (dengue virus type 2 [2]): 2.7 µM

N/C(=N\O)c1cccc(-c2ccc3c(c2)c2cc(-c4cccc(/C(N)=N/O)c4)ccc2n3S(=O)(=O)c2cccc3cccnc23)c1
EC50 (dengue virus type 2 [2]): 8.5 µM

COc1ccc(F)cc1S(=O)(=O)n1c2ccc(-c3cccc(/C(N)=N/O)c3)cc2c2cc(-c3cccc(/C(N)=N/O)c3)ccc21
EC50 (dengue virus type 2 [2]): 2.8 µM

N/C(=N\O)c1cccc(-c2ccc3c(c2)c2cc(-c4cccc(/C(N)=N/O)c4)ccc2n3Cc2cc(F)cc(Br)c2)c1
EC50 (dengue virus type 2 [2]): 1.5 µM

COc1cccc(Cn2c3ccc(-c4cccc(/C(N)=N/O)c4)cc3c3cc(-c4cccc(/C(N)=N/O)c4)ccc32)c1
EC50 (dengue virus type 2 [2]): 1.8 µM | EC50 (Zika virus): 8.7 µM | inhibition [9]: inactive

COc1ccc(S(=O)(=O)n2c3ccc(-c4cccc(/C(N)=N/O)c4)cc3c3cc(-c4cccc(/C(N)=N/O)c4)ccc32)cc1OC
EC50 (dengue virus type 2 [2]): 5.7 µM

N=C(N)c1cccc(-c2ccc3c(c2)c2cc(-c4cccc(C(=N)N)c4)ccc2n3S(=O)(=O)c2ccccc2Br)c1
IC50 (Genome polyprotein [1]; read-out: IC50): 8.8 µM | EC50 (dengue virus type 2 [2]): 6.9 µM

COc1cccc(S(=O)(=O)n2c3ccc(-c4cccc(C(=N)N)c4)cc3c3cc(-c4cccc(C(=N)N)c4)ccc32)c1
IC50 (Genome polyprotein [1]; read-out: IC50): 4.5 µM | EC50 (dengue virus type 2 [2]): 26.2 µM

COc1ccc(Cn2c3ccc(-c4cccc(/C(N)=N/O)c4)cc3c3cc(-c4cccc(/C(N)=N/O)c4)ccc32)cc1F
EC50 (dengue virus type 2 [2]): 6.9 µM

N/C(=N\O)c1cccc(-c2ccc3c(c2)c2cc(-c4cccc(/C(N)=N/O)c4)ccc2n3Cc2cccc(Br)c2)c1
EC50 (dengue virus type 2 [2]): 1.1 µM | IC50 (Genome polyprotein [10]): 18 µM | EC50 (dengue virus type 2 [11]): 1.1 µM | CC50 [12]: > 100 µM | EC50 (dengue virus type 2 [13]): 1.66 µM | CC50 [14]: > 100 µM | EC50 (dengue virus type 1): 5.9 µM | EC50 (dengue virus type 2 [15]): 1.4 µM | EC50 (dengue virus type 3): 5.1 µM | EC50 (dengue virus type 4): 1.7 µM | log(activity) (dengue virus type 2 [3]): 2 | log(activity) (dengue virus type 2 [4]): 3 | Activity (dengue virus type 2 [5]): 10% | log(activity) (dengue virus type 2 [6]): 2 | Activity (dengue virus type 2 [7]): inactive | inhibition [8]: Active

COc1ccc(OC)c(S(=O)(=O)n2c3ccc(-c4cccc(/C(N)=N/O)c4)cc3c3cc(-c4cccc(/C(N)=N/O)c4)ccc32)c1
EC50 (dengue virus type 2 [2]): 5.1 µM

N/C(=N\O)c1cccc(-c2ccc3c(c2)c2cc(-c4cccc(/C(N)=N/O)c4)ccc2n3S(=O)(=O)c2cccc(C(F)(F)F)c2)c1
IC50 (Genome polyprotein [1]): Not Active | EC50 (dengue virus type 2 [2]): 5 µM

N/C(=N\O)c1cccc(-c2ccc3c(c2)c2cc(-c4cccc(/C(N)=N/O)c4)ccc2n3CCCCOc2ccc3ccc(=O)[nH]c3c2)c1
EC50 (dengue virus type 2 [2]): 8.9 µM

N/C(=N\O)c1cccc(-c2ccc3c(c2)c2cc(-c4cccc(/C(N)=N/O)c4)ccc2n3S(=O)(=O)c2ccccc2C(F)(F)F)c1
EC50 (dengue virus type 2 [2]): 5.3 µM
